Measured values as given in patent US20120259092A1, “NPY ANTAGONISTS” (priority 2011, published 2012).
Entries after “also recorded” stand apart in the source; their conditions may differ. Bridge positions count the residues as written; N and C are the ends. Square brackets hold non-standard residues; d marks the D form. Peptide text beside a SMILES is read from it. I, II: the chains in the order shown. * marks the point of attachment. DOTA = O=C(O)CN1CCN(CC(=O)O)CCN(CC(=O)*)CCN(CC(=O)O)CC1; Nle = CCCC[C@H](N)C(=O)O

Tests used:
[1] = target: T1, NPY Y1 (Homo sapiens, UniProt P25929); assay: Adenylate cyclase activity (forskolin-stimulated cAMP accumulation) flashplate assay in SK-N-MC cells; assay type: cell-based; details: for Activity Y1-cAMP (SK-N-MC): agonistic or antagonistic property: SK-N-MC cells
T1 construct: SK-N-MC cells endogenously expressing Y1; host or cells: SK-N-MC
T1 sequence (P25929 1-384): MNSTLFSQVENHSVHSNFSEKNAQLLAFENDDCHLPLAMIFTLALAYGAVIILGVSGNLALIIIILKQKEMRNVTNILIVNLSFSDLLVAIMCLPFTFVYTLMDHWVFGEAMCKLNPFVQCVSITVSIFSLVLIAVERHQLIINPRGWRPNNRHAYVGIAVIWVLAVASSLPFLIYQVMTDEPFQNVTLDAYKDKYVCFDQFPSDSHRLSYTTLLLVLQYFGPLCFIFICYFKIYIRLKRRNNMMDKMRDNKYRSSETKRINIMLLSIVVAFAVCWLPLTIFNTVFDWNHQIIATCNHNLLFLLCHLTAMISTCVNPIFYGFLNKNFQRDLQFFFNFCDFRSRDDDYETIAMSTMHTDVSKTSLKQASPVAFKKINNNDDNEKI
Protocol: Cells were incubated for 30 min with 10 μM forskolin in the presence of [Leu^31-Pro^34]-PYY (LP-PYY) at concentrations ranging between 0.01 nM and 20 μM alone ([…]) or with 10 μM forskolin in the presence of LP-PYY at concentrations ranging between 0.01 nM and 20 μM supplemented with a fixed concentration of 20 μM of the analog Peptide No. 11 (▪). […] Peptide No. 11 given alone has no effect on the accumulation of forskolin-stimulated cAMP (▴).
Adenylate cyclase activity with respect to NPY Y1 was determined in SK-N-MC cells using the adenylate cyclase activation flashplate assay (SMP004) from PerkinElmer. SK-N-MC cells were seeded in 96-well culture plates at 25,000 cells/well and cultured for 48 h at 37° C. and 5% CO2. Culture medium was then removed from the wells and fresh medium (100 μL) containing 0.5 mM 3-isobutyl-1-methylxanthine (IBMX) was added to each well. Cells were incubated for 30 min at 37° C. Medium was then removed and replaced with fresh medium containing 0.5 mM IBMX, with or without 10 μM forskolin and various concentrations of the peptides to be analyzed. Cells were incubated for 30 min at 37° C. After removal of the medium, cells were lysed and cAMP accumulation was determined using the SMP004 kit from PerkinElmer.
Because the addition of a DOTA moiety can change the functional characteristics of a compound, as recently shown in the somatostatin receptor field for sst3, compounds having a high or moderate Y1 affinity were analyzed in an adenylate cyclase activity assay for their agonistic or antagonistic properties. […] Given alone at a high concentration of 20 μM, they were unable to inhibit forskolin-stimulated cAMP accumulation but they efficiently antagonized the agonistic effect of 100 nM [Leu^31, Pro^34]-hPYY. […] The conclusion is that the DOTA-conjugated compound, i.e. Peptide No. 11, with its high binding affinity and its antagonist property represents an excellent candidate for in vivo tumor targeting.

[2] = target: T1, NPY Y1; assay: Receptor autoradiography binding, 125I-hPYY displacement on SK-N-MC cell membrane pellet sections; details: for Displacement of 125I-hPYY (FIG. 2): SK-N-MC cell line, competition experiments; for IC50: SK-N-MC membrane pellet sections, 125I-hPYY, read-out: Binding affinity (IC50 nM) Y1 (SK-N-MC)
Protocol: Testing of Peptides 1-11 was carried out using specific cell lines. The neuroepithelioma cell line SK-N-MC endogenously expressing the NPY Y1 receptor was obtained from ATCC (HTB-10; LGC Standards, Teddington, Middlesex, UK). Cells were cultured at 37° C. and 5% CO2 in MEM medium with GlutaMax I and supplemented with 10% FBS, 100 U/ml penicillin and 100 μg/ml streptomycin, 1 mM MEM sodium pyruvate, and MEM non-essential amino acids (1×). The neuroblastoma cell line SH-SY5Y endogenously expressing the NPY Y2 receptor, was provided by Dr. Paolo Paganetti (Novartis, Basel, Switzerland). Cells were cultured at 37° C. and 5% CO2 in MEM/Ham's F12 with GlutaMax I and supplemented with 10% FBS, 100 U/ml penicillin and 100 μg/ml streptomycin, 1 mM MEM sodium pyruvate, and MEM non-essential amino acids (1×).
Binding affinities of the compounds were assessed using sections of cell membrane pellets of SK-N-MC for NPY Y1 or SH-SY5Y for NPY Y2. Briefly, membrane pellets were prepared and stored at −80° C., and receptor autoradiography was performed on 20-μm thick cryostat sections of the membrane pellets, mounted on microscope slides and stored at −20° C. The slides were preincubated in Krebs-Ringer solution (NaCl 119 mM, KCl 3.2 mM, KH2PO4 1.19 mM, MgSO4 1.19 mM, NaHCO3 25 mM, CaCl2 2.53 mM, D-glucose 10 mM; pH 7.4) for 60 min at room temperature. Then, they were incubated for 120 min in Krebs-Ringer solution containing 0.1% BSA, 0.05% bacitracin, and 10 000 cpm/100 μl of the ^125I-labeled human PYY alone or with increasing concentrations ranging from 0.1 nM up to 1000 nM of non-labeled hPYY, as control, or with the compounds to be tested. After the incubation, the slides were washed two times for 5 min and then rinsed four times in ice-cold preincubation solution. After drying, the slides were exposed to Kodak films Biomax MR® for 7 days. IC50 values were calculated after quantification of the data using a computer-assisted image processing system. Tissue standards containing known amount of isotope, cross-calibrated to tissue-equivalent ligand concentrations were used for quantification.
The DOTA-free and DOTA-coupled analogs listed in Table 1 were analyzed in receptor autoradiography experiments for NPY Y1 and Y2 receptor binding affinities on SK-N-MC cells endogenously expressing Y1 and SH-SY5Y cells endogenously expressing Y2, respectively. Pharmacological displacement experiment using SK-N-MC cell membrane pellet sections for Peptides Nos. 9, 10 and 11 are shown in FIG. 2. The addition of two DOTA moieties to the homodimeric analogs decreases the Y1 binding affinity up to 2-30 fold.

Row | Activity Y1-cAMP (SK-N-MC): agonistic or antagonistic property ([1]; 10 μM forskolin) | Effect on forskolin-stimulated cAMP accumulation, given alone ([1]; peptide alone, 20 μM, 10 μM forskolin) | Displacement of 125I-hPYY (FIG. 2) [2] | IC50 [2] [nM] | Compound | Effect on dose response curve of [Leu31,Pro34]-PYY (LP-PYY) ([1]; peptide fixed at 20 μM, with increasing LP-PYY, 10 μM forskolin, 30 min) | Inhibition of forskolin-stimulated cAMP accumulation (agonist control) ([1]; applied at 20 μM and 100 nM)
1 | – | – | high affinity displacements | – | hPYY: non-labeled human peptide YY, used as control in binding competition [reference compound] | – | –
2 | Antagonist | – | – | 294 ± 33 | CCCC[C@H](NC(=O)[C@H](CCCNC(=N)N)NC(=O)[C@H](Cc1c[nH]c2ccccc12)NC(=O)[C@H](CSSC[C@H](NC(=O)[C@@H]1CCCN1C(=O)[C@H](CC(N)=O)NC(=O)[C@@H](NC(=O)CN1CCN(CC(=O)O)CCN(CC(=O)O)CCN(CC(=O)O)CC1)[C@@H](C)CC)C(=O)N[C@@H](Cc1c[nH]c2ccccc12)C(=O)N[C@@H](CCCNC(=N)N)C(=O)N[C@@H](CCCC)C(=O)N[C@@H](CCCNC(=N)N)C(=O)N[C@@H](Cc1ccc(O)cc1)C(N)=O)NC(=O)[C@@H]1CCCN1C(=O)[C@H](CC(N)=O)NC(=O)[C@@H](NC(=O)CN1CCN(CC(=O)O)CCN(CC(=O)O)CCN(CC(=O)O)CC1)[C@@H](C)CC)C(=O)N[C@@H](CCCNC(=N)N)C(=O)N[C@@H](Cc1ccc(O)cc1)C(N)=O [compound 4] (I: {DOTA}-INPCWR[Nle]RY-NH2 / II: {DOTA}-INPCWR[Nle]RY-NH2; disulfide I:4-II:4) | – | –
3 | Antagonist | – | – | 143 ± 37 | CC[C@H](C)[C@H](NC(=O)CN1CCN(CC(=O)O)CCN(CC(=O)O)CCN(CC(=O)O)CC1)C(=O)N[C@@H](CC(N)=O)C(=O)N1CCC[C@H]1C(=O)N[C@@H](CSSC[C@H](NC(=O)[C@@H]1CCCN1C(=O)[C@H](CC(N)=O)NC(=O)[C@@H](NC(=O)CN1CCN(CC(=O)O)CCN(CC(=O)O)CCN(CC(=O)O)CC1)[C@@H](C)CC)C(=O)N[C@@H](Cc1ccc(O)cc1)C(=O)N[C@@H](CCCNC(=N)N)C(=O)N[C@@H](CC(C)C)C(=O)N[C@@H](CCCNC(=N)N)C(=O)N[C@@H](Cc1ccc(O)cc1)C(N)=O)C(=O)N[C@@H](Cc1ccc(O)cc1)C(=O)N[C@@H](CCCNC(=N)N)C(=O)N[C@@H](CC(C)C)C(=O)N[C@@H](CCCNC(=N)N)C(=O)N[C@@H](Cc1ccc(O)cc1)C(N)=O [compound 2] (I: {DOTA}-INPCYRLRY-NH2 / II: {DOTA}-INPCYRLRY-NH2; disulfide I:4-II:4) | – | –

Further lines, the compound ahead of its results:

Row | Compound | Activity Y1-cAMP (SK-N-MC): agonistic or antagonistic property ([1]; 10 μM forskolin) | Effect on forskolin-stimulated cAMP accumulation, given alone ([1]; peptide alone, 20 μM, 10 μM forskolin) | Displacement of 125I-hPYY (FIG. 2) [2] | IC50 [2] [nM] | Effect on dose response curve of [Leu31,Pro34]-PYY (LP-PYY) ([1]; peptide fixed at 20 μM, with increasing LP-PYY, 10 μM forskolin, 30 min) | Inhibition of forskolin-stimulated cAMP accumulation (agonist control) ([1]; applied at 20 μM and 100 nM)
4 | CCCC[C@H](NC(=O)[C@H](CCCNC(=N)N)NC(=O)[C@H](Cc1c[nH]c2ccccc12)NC(=O)[C@H](CSSC[C@H](NC(=O)[C@@H]1CCCN1C(=O)[C@H](CC(N)=O)NC(=O)[C@@H](N)[C@@H](C)CC)C(=O)N[C@@H](Cc1c[nH]c2ccccc12)C(=O)N[C@@H](CCCNC(=N)N)C(=O)N[C@@H](CCCC)C(=O)N[C@@H](CCCNC(=N)N)C(=O)N[C@@H](Cc1ccc(O)cc1)C(N)=O)NC(=O)[C@@H]1CCCN1C(=O)[C@H](CCCCNC(=O)CN1CCN(CC(=O)O)CCN(CC(=O)O)CCN(CC(=O)O)CC1)NC(=O)[C@@H](N)[C@@H](C)CC)C(=O)N[C@@H](CCCNC(=N)N)C(=O)N[C@@H](Cc1ccc(O)cc1)C(N)=O [Peptide No. 11] (I: H-IK(DOTA)PCWR[Nle]RY-NH2 / II: H-INPCWR[Nle]RY-NH2; disulfide I:4-II:4) | Antagonist | no effect | high affinity displacements | 13 | shifts the dose response curve of LP-PYY to the right; also recorded: shift the dose response curve of [Leu^31, Pro^34]-hPYY to the right | –
5 | [Leu^31, Pro^34]-hPYY [reference compound] | – | – | – | – | – | efficiently inhibited forskolin-stimulated cAMP accumulation
